From US20140135270A1, “MACROCYCLIC COMPOUNDS FOR INHIBITION OF INHIBITORS OF APOPTOSIS” (Ensemble Therapeutics Corp., priority 2012, published 2014)

Assays:
His-BIR3 (241-356, XIAP) = biological target: T1, His-BIR3 (241-356, XIAP) (Homo sapiens, UniProt P98170); assay: XIAP-BIR3/SMAC Homogeneous Time Resolved Fluorescence (HTRF) Assay; format: binding; conditions: fluorescein labeled SMAC peptide
T1 construct: additions of His-BIR3 (241-356, XIAP), fluorescein labeled SMAC peptide

[1] = biological target: T2, His-BIR2-3 (125-356, C202A/C213G, XIAP) (Homo sapiens, UniProt P98170, C202A/C213G); assay: XIAP-BIR2-3 Dimeric SMAC Peptide Homogeneous Time Resolved Fluorescence (HTRF) Assay; format: binding; conditions: fluorescein labeled dimeric SMAC peptide
T2 construct: additions of His-BIR2-3 (125-356, C202A/C213G, XIAP), fluorescein labeled dimeric SMAC peptide
T2 sequence (P98170 125-356 C202A/C213G): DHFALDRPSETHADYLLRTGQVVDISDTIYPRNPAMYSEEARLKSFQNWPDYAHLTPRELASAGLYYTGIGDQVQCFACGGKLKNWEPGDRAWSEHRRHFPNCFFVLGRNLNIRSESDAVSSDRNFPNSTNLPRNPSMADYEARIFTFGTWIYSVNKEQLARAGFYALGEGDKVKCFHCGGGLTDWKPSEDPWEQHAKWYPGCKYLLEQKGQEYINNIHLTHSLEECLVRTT

T1 sequence (P98170 241-356): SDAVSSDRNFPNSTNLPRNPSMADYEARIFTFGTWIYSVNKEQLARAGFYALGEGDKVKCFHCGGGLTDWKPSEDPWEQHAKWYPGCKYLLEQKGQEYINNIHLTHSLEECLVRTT

IC50 (His-BIR3 (241-356, XIAP)) | IC50 [1] | Compound
3.5 nM | 2.7 nM | CNC(C)C(=O)NC(C(=O)N1CC2CCCCOc3ccc(cc3)CC(C(=O)NS(=O)(=O)CCCNC(C)=O)NC(=O)C(Cc3ccc4ccccc4c3)NC(=O)C3CC(CN3C(=O)C(NC(=O)C(C)NC)C(C)(C)C)n3cc(nn3)COc3ccc(cc3)CC(C(=O)O)NC(=O)C(Cc3ccc4ccccc4c3)NC(=O)C1C2)C(C)(C)C (centres unmarked) [Example 27]
3.5 nM | 1.1 nM | CN[C@@H](C)C(=O)N[C@H](C(=O)N1C[C@H]2C/C=C/COc3ccc(cc3)C[C@@H](C(=O)O)NC(=O)[C@H](Cc3ccc4ccccc4c3)NC(=O)[C@@H]3C[C@@H](CN3C(=O)[C@@H](NC(=O)[C@H](C)NC)C(C)(C)C)NC(=O)c3ccc(cc3)C[C@@H](C(=O)O)NC(=O)C(Cc3ccc4ccccc4c3)NC(=O)[C@@H]1C2)C(C)(C)C (some centres unmarked) [Example 28]
7.5 nM | 1.1 nM | CNC(C)C(=O)NC(C(=O)N1CC2CC1C(=O)NC(Cc1ccc3ccccc3c1)C(=O)NC(C(=O)O)Cc1ccc(cc1)OCC=CCOC1CC(C(=O)NC(Cc3ccc4ccccc4c3)C(=O)NC(C(=O)O)Cc3ccc(cc3)CC(=O)N2)N(C(=O)C(NC(=O)C(C)NC)C(C)(C)C)C1)C(C)(C)C (centres unmarked) [Example 30]
5.8 nM | 2.1 nM | CNC(C)C(=O)NC(C(=O)N1CC2CC1C(=O)NC(Cc1ccc3ccccc3c1)C(=O)NC(C(=O)O)Cc1ccc(cc1)OCC=CCOC1CC(C(=O)NC(Cc3ccc4ccccc4c3)C(=O)NC(C(=O)O)CCCCC(=O)N2)N(C(=O)C(NC(=O)C(C)NC)C(C)(C)C)C1)C(C)(C)C (centres unmarked) [Example 31]
111 nM | 3.5 nM | CN[C@@H](C)C(=O)N[C@H](C(=O)N1C[C@@H]2C[C@H]1C(=O)N[C@@H](C)C(=O)N[C@H](C(=O)O)Cc1ccc(cc1)C(=O)N[C@H]1C[C@@H](C(=O)N[C@@H](Cc3ccc4ccccc4c3)C(=O)N[C@H](C(=O)O)Cc3ccc(cc3)OC/C=C/CO2)N(C(=O)[C@@H](NC(=O)[C@H](C)NC)C(C)(C)C)C1)C(C)(C)C [Example 44]
106 nM | 7.9 nM | CC[C@H](NC(=O)[C@H](C)NC)C(=O)N1C[C@@H]2C[C@H]1C(=O)N[C@@H](C)C(=O)N[C@H](C(=O)O)Cc1ccc(cc1)C(=O)N[C@H]1C[C@@H](C(=O)N[C@@H](Cc3ccc4ccccc4c3)C(=O)N[C@H](C(=O)O)Cc3ccc(cc3)OC/C=C/CO2)N(C(=O)[C@@H](NC(=O)[C@H](C)NC)C(C)(C)C)C1 [Example 45]
24.2 nM | 5.3 nM | CN[C@@H](C)C(=O)N[C@H](C(=O)N1C[C@@H]2C[C@H]1C(=O)N[C@@H](Cc1ccc3ccccc3c1)C(=O)N[C@H](C(=O)O)Cc1ccc(cc1)OC/C=C/CO[C@H]1C[C@@H](C(=O)N[C@@H](Cc3c[nH]c4ccccc34)C(=O)N[C@H](C(=O)O)Cc3ccc(cc3)C(=O)N2)N(C(=O)[C@@H](NC(=O)[C@H](C)NC)C(C)(C)C)C1)C(C)(C)C [Example 46]
41.8 nM | 6.3 nM | CC[C@H](NC(=O)[C@H](C)NC)C(=O)N1C[C@@H]2C[C@H]1C(=O)N[C@@H](Cc1c[nH]c3ccccc13)C(=O)N[C@H](C(=O)O)Cc1ccc(cc1)C(=O)N[C@H]1C[C@@H](C(=O)N[C@@H](Cc3ccc4ccccc4c3)C(=O)N[C@H](C(=O)O)Cc3ccc(cc3)OC/C=C/CO2)N(C(=O)[C@@H](NC(=O)[C@H](C)NC)C(C)(C)C)C1 [Example 47]
17.6 nM | 2.6 nM | CN[C@@H](C)C(=O)N[C@H](C(=O)N1C[C@@H]2C[C@H]1C(=O)N[C@@H](Cc1ccc3ccccc3c1)C(=O)N[C@H](C(=O)O)Cc1ccc(cc1)OC/C=C/CO[C@H]1C[C@@H](C(=O)N[C@@H](Cc3ccc(-c4ccccc4)cc3)C(=O)N[C@H](C(=O)O)Cc3ccc(cc3)C(=O)N2)N(C(=O)[C@@H](NC(=O)[C@H](C)NC)C(C)(C)C)C1)C(C)(C)C [Example 48]
16.1 nM | 4.8 nM | CC[C@H](NC(=O)[C@H](C)NC)C(=O)N1C[C@@H]2C[C@H]1C(=O)N[C@@H](Cc1ccc(-c3ccccc3)cc1)C(=O)N[C@H](C(=O)O)Cc1ccc(cc1)C(=O)N[C@H]1C[C@@H](C(=O)N[C@@H](Cc3ccc4ccccc4c3)C(=O)N[C@H](C(=O)O)Cc3ccc(cc3)OC/C=C/CO2)N(C(=O)[C@@H](NC(=O)[C@H](C)NC)C(C)(C)C)C1 [Example 49]
80 nM | 56.7 nM | CC[C@H](NC(=O)[C@H](C)NC)C(=O)N1C[C@@H]2C[C@H]1C(=O)N1Cc3ccccc3C[C@H]1C(=O)N[C@H](C(=O)O)Cc1ccc(cc1)C(=O)N[C@H]1C[C@@H](C(=O)N[C@@H](Cc3ccc4ccccc4c3)C(=O)N[C@H](C(=O)O)Cc3ccc(cc3)OC/C=C/CO2)N(C(=O)[C@@H](NC(=O)[C@H](C)NC)C(C)(C)C)C1 [Example 50]
61 nM | 4.8 nM | CN[C@@H](C)C(=O)N[C@H](C(=O)N1C[C@@H]2C[C@H]1C(=O)N[C@@H](Cc1ccc3ccccc3c1)C(=O)N[C@H](C(=O)O)Cc1ccc(cc1)OC/C=C/CO[C@H]1C[C@@H](C(=O)N[C@@H](c3ccccc3)C(=O)N[C@H](C(=O)O)Cc3ccc(cc3)C(=O)N2)N(C(=O)[C@@H](NC(=O)[C@H](C)NC)C(C)(C)C)C1)C(C)(C)C [Example 51]
47.4 nM | 2.5 nM | CN[C@@H](C)C(=O)N[C@H](C(=O)N1C[C@@H]2C[C@H]1C(=O)N[C@@H](Cc1ccc3ccccc3c1)C(=O)N[C@H](C(=O)O)Cc1ccc(cc1)OC/C=C/CO[C@H]1C[C@@H](C(=O)N[C@@H](c3ccccc3)C(=O)N[C@H](C(=O)O)Cc3ccc(cc3)C(=O)N2)N(C(=O)[C@@H](NC(=O)[C@H](C)NC)C(C)(C)C)C1)C(C)(C)C [Example 53]
252 nM | 108 nM | CN[C@@H](C)C(=O)N[C@@H](C)C(=O)N1C[C@@H]2C[C@H]1C(=O)N[C@@H](Cc1ccc3ccccc3c1)C(=O)N[C@H](C(=O)O)CCC(=O)N[C@H]1C[C@@H](C(=O)N[C@@H](Cc3ccc4ccccc4c3)C(=O)N[C@H](C(=O)O)Cc3ccc(cc3)OC/C=C/CO2)N(C(=O)[C@@H](NC(=O)[C@H](C)NC)C(C)(C)C)C1 [Example 55]
57.9 nM | 5.9 nM | CN[C@@H](C)C(=O)N[C@H](C(=O)N1C[C@@H]2C[C@H]1C(=O)N[C@@H](Cc1ccc3ccccc3c1)C(=O)N[C@H](C(=O)O)CCC(=O)N[C@H]1C[C@@H](C(=O)N[C@@H](Cc3ccc4ccccc4c3)C(=O)N[C@H](C(=O)O)Cc3ccc(cc3)OC/C=C/CO2)N(C(=O)[C@@H](NC(=O)[C@H](C)NC)C(C)(C)C)C1)C(C)C [Example 56]
201 nM | 12.1 nM | CN[C@@H](C)C(=O)N[C@H](C(=O)N1C[C@@H]2C[C@H]1C(=O)N[C@@H](Cc1ccc3ccccc3c1)C(=O)N[C@H](C(=O)O)CCC(=O)N[C@H]1C[C@@H](C(=O)N[C@@H](Cc3ccc4ccccc4c3)C(=O)N[C@H](C(=O)O)Cc3ccc(cc3)OC/C=C/CO2)N(C(=O)[C@@H](NC(=O)[C@H](C)NC)C(C)(C)C)C1)[C@H](C)O [Example 57]
757 nM | 138 nM | CN[C@@H](C)C(=O)N[C@@H](CC(=O)O)C(=O)N1C[C@@H]2C[C@H]1C(=O)N[C@@H](Cc1ccc3ccccc3c1)C(=O)N[C@H](C(=O)O)CCC(=O)N[C@H]1C[C@@H](C(=O)N[C@@H](Cc3ccc4ccccc4c3)C(=O)N[C@H](C(=O)O)Cc3ccc(cc3)OC/C=C/CO2)N(C(=O)[C@@H](NC(=O)[C@H](C)NC)C(C)(C)C)C1 [Example 58]
131 nM | 24.3 nM | CN[C@@H](C)C(=O)N[C@@H](Cc1c[nH]cn1)C(=O)N1C[C@@H]2C[C@H]1C(=O)N[C@@H](Cc1ccc3ccccc3c1)C(=O)N[C@H](C(=O)O)CCC(=O)N[C@H]1C[C@@H](C(=O)N[C@@H](Cc3ccc4ccccc4c3)C(=O)N[C@H](C(=O)O)Cc3ccc(cc3)OC/C=C/CO2)N(C(=O)[C@@H](NC(=O)[C@H](C)NC)C(C)(C)C)C1 [Example 59]
79.5 nM | 9.2 nM | CN[C@@H](C)C(=O)N[C@@H](Cc1ccccc1)C(=O)N1C[C@@H]2C[C@H]1C(=O)N[C@@H](Cc1ccc3ccccc3c1)C(=O)N[C@H](C(=O)O)CCC(=O)N[C@H]1C[C@@H](C(=O)N[C@@H](Cc3ccc4ccccc4c3)C(=O)N[C@H](C(=O)O)Cc3ccc(cc3)OC/C=C/CO2)N(C(=O)[C@@H](NC(=O)[C@H](C)NC)C(C)(C)C)C1 [Example 60]
60.2 nM | 8 nM | CN[C@@H](C)C(=O)N[C@H](C(=O)N1C[C@@H]2C[C@H]1C(=O)N[C@@H](Cc1ccc3ccccc3c1)C(=O)N[C@H](C(=O)O)Cc1ccc(cc1)OC/C=C/CO[C@H]1C[C@@H](C(=O)N[C@@H](C(c3ccccc3)c3ccccc3)C(=O)N[C@H](C(=O)O)Cc3ccc(cc3)C(=O)N2)N(C(=O)[C@@H](NC(=O)[C@H](C)NC)C(C)(C)C)C1)C(C)(C)C [Example 62]
17.9 nM | 2.7 nM | CN[C@@H](C)C(=O)N[C@@H](CCC(=O)O)C(=O)N1C[C@@H]2C[C@H]1C(=O)N[C@@H](Cc1ccc3ccccc3c1)C(=O)N[C@H](C(=O)O)Cc1ccc(cc1)C(=O)N[C@H]1C[C@@H](C(=O)N[C@@H](Cc3ccc4ccccc4c3)C(=O)N[C@H](C(=O)O)Cc3ccc(cc3)OC/C=C/CO2)N(C(=O)[C@@H](NC(=O)[C@H](C)NC)C(C)(C)C)C1 [Example 63]
36.6 nM | 5.9 nM | CN[C@@H](C)C(=O)N[C@@H](CC(=O)O)C(=O)N1C[C@@H]2C[C@H]1C(=O)N[C@@H](Cc1ccc3ccccc3c1)C(=O)N[C@H](C(=O)O)Cc1ccc(cc1)C(=O)N[C@H]1C[C@@H](C(=O)N[C@@H](Cc3ccc4ccccc4c3)C(=O)N[C@H](C(=O)O)Cc3ccc(cc3)OC/C=C/CO2)N(C(=O)[C@@H](NC(=O)[C@H](C)NC)C(C)(C)C)C1 [Example 64]
